Data as given in patent US4646832A, “Determining residual oil saturation by injecting salts of carbonic and halocarboxylic acids” (Shell Oil Company, priority 1985, dated 1987).
Read-outs that look alike come from different tables or passages of the source. Blank lines part the entries; values can stand above or below the molecule they belong to.

Key:
[1] = 50 psig, 0.05 mol/liter acid salt, 0.5 mol/liter NaCl
Excerpt: In each case, the solution was maintained at a pressure of 50 psig during each test. The pH of the solution was maintained substantially constant by adding portions of 0.1 mol/liter sodium bicarbonate solution to the system while the hydrolysis was proceeding. Each acid generator solution consisted of water containing 0.5 mol/liter sodium chloride and 0.05 mols/liter of the indicated halocarboxylic acid salt.
*^1 This is the time, in hours, required for the acid generator to be
onehalf reacted to form CO2 or acid.

[2] = Best estimate of applicable temperature range of CO2 generators (Table I); assay type: physicochemical; details: best estimate of the applicable temperature range as CO2 generator

SMILES: O=C(O)CBr [Bromoacetic acid]
Half Life, t1/2 ([1]; Test 16, 167 °F, pH 5.5): 17.3 h
Half Life, t1/2 ([1]; Test 17, 166 °F, pH 7.0): 12.5 h
Half Life, t1/2 ([1]; Test 18, 143 °F, pH 7.0): 171.4 h
Half Life, t1/2 ([1]; Test 19, 156 °F, pH 6.2): 32.6 h
Half Life, t1/2 ([1]; Test 20, 140 °F, pH 6.2): 136.9 h
Half Life, t1/2 ([1]; Test 21, 124 °F, pH 6.2): 319.2 h

SMILES: CC(Cl)C(=O)O (stereo not drawn) [2-Chloropropionic acid]
Half Life, t1/2 ([1]; Test 25, 130 °F, pH 6.2): 73.1 h
Half Life, t1/2 ([1]; Test 26, 114 °F, pH 6.2): 598.5 h

SMILES: O=C(O)CCl [Monochloroacetic acid]
Half Life, t1/2 ([1]; Test 8, 182 °F, pH 7.0): 127.9 h
Half Life, t1/2 ([1]; Test 9, 198 °F, pH 7.0): 49.4 h

The remaining lines, values ahead:

Half Life, t1/2 ([1]; Test 10, 197 °F, pH 7.0): 111.8 h
Half Life, t1/2 ([1]; Test 11, 221 °F, pH 7.0): 23.0 h
SMILES: O=C(O)C(Cl)Cl [Dichloroacetic acid]

Half Life, t1/2 ([1]; Test 12, 212 °F, pH 7.0): 3,113 hours
Half Life, t1/2 ([1]; Test 13, 212 °F, pH 6.2): 2,543 hours
Half Life, t1/2 ([1]; Test 14, 204 °F, pH 8.0): 3,906 hours
Half Life, t1/2 ([1]; Test 15, 251 °F, pH 8.0): 2,335 hours
Temperature Range [2]: > 300 °F.
SMILES: O=C(O)c1ccccc1Cl [O--Chlorobenzoic acid]

Half Life, t1/2 ([1]; Test 1, 138 °F, pH 8.0): 43.5 h
Half Life, t1/2 ([1]; Test 2, 140 °F, pH 7.0): 16.1 h
Half Life, t1/2 ([1]; Test 3, 133 °F, pH 6.2): 27.9 h
Half Life, t1/2 ([1]; Test 4, 133 °F, pH 5.5): 30.4 h
Half Life, t1/2 ([1]; Test 5, 113 °F, pH 5.5): 114.0 h
Half Life, t1/2 ([1]; Test 6, 117 °F, pH 6.2): 95.8 h
Half Life, t1/2 ([1]; Test 7, 114 °F, pH 7.0): 130.1 h
SMILES: O=C(O)CCCl [3-Chloropropionic acid]

Half Life, t1/2 ([1]; Test 22, 125 °F, pH 6.2): 13.2 h
Half Life, t1/2 ([1]; Test 23, 99 °F, pH 6.2): 29.2 h
Half Life, t1/2 ([1]; Test 24, 102 °F, pH 6.2): 80.0 h
SMILES: CC(Cl)CC(=O)O (stereo not drawn) [3-Chlorobutyric acid]
